Results as given in publication PMC6680510, “Benzotriazine Di-Oxide Prodrugs for Exploiting Hypoxia and Low Extracellular pH in Tumors” (Molecules, 2019).
Values joined by “and” are separate entries in the source; they are usually repeats but may differ in a detail not shown here. Equal entries are not always repeated. Where two headings read alike, the source gives them in different places.

Legend:
[1] = system: FaDu cells; assay: IC50 assay (inhibition of proliferation, 4 h exposure, SRB); assay type: cell-based; conditions: for IC50: Homo sapiens, 4 h
[2] = system: UT-SCC-74B cells; assay: as above; assay type: cell-based; conditions: for IC50: Homo sapiens, 4 h; for IC50 / PCR Anoxic (IC50 at pHe 7.4/IC50 at pHe 6.5) / PCR oxic (IC50 at pHe 7.4/IC50 at pHe 6.5): UT-SCC-74B
Protocol: (§1) Cells were seeded in 96-well plates (SiHa or FaDu 1500 cells/well, UT-SCC-74B 800 cells/well) in 100 μL. After incubation for 2 h, the drugs were added in 50 μL of the same titrated medium at 3× the final concentration to duplicate the wells. After a further 4 h the plates were checked for drug precipitation using a phase contrast microscope, then drugs were removed by aspirating and washing with the standard (pH 7.4) medium, then aspirating again and adding 150 μL of the medium. Cultures were then grown for 5 days before staining with sulphorhodamine B and measuring absorbance, with the estimation of IC50 values using 4-parameter logistic regression, as previously carried out.
The medium and plasticware was equilibrated in the chamber for 3 days prior to use. In the anoxia experiments, FaDu cells were plated in poly-L-lysine coated plates (Corning Cat # 356461) to improve attachment. […]
Footnotes: a Number of experiments. b Anoxic cytotoxicity ratio = oxic IC50/anoxic IC50. c pH
cytotoxicity ratio = IC50 at pHe 7.4/ IC50 at pHe 6.5. d Overall ratio = oxic IC50 pHe 7.4 / anoxic IC50 pHe
6.5. Values are means and errors are SEM. For ratios, the errors are root mean square SEM. […]

[3] = system: SiHa cells; assay: IC50 assay modified for chronic hypoxia (oxia, hypoxia, anoxia); assay type: cell-based; conditions: for IC50: Homo sapiens
Protocol: There are relatively few viable cells in tumors at O2 concentrations as low as in the above anoxic experiments. In addition, extensive changes in gene expression occur under chronic exposure to intermediate O2 concentrations (chronic hypoxia), including the expression of proteins that regulate pHi. […] Therefore, oxic and anoxic exposures were also tested in these same experiments. The 24 h adaptation to hypoxia had little effect on the subsequent growth of the cultures at either pHe value (Figure S6).
To minimize problems with poor cell attachment under chronic hypoxia, the drugs were added from a 3-fold dilution series made in a separate plate, rather than by serial dilution in the plates containing the cells. In addition, the drugs were removed after the 4 h exposure by centrifuging the plates (200g × 5 min) prior to each aspiration. The same modifications were used for the oxic drug exposures in these experiments.

[4] = system: SiHa cells; assay: IC50 assay (inhibition of proliferation, 4 h exposure, SRB); conditions: SiHa; for IC50: Homo sapiens, 4 h
Protocol: as §1
The medium and plasticware was equilibrated in the chamber for 3 days prior to use. In the anoxia experiments, FaDu cells were plated in poly-L-lysine coated plates (Corning Cat # 356461) to improve attachment.
Cells were subsequently grown under standard cell culture conditions (oxia, pHe 7.4) for 5 days before staining with sulforhodamine B (SRB). […] (B) SN30000 (2). (C) BTO acid 4a. Values are means and errors are ranges for duplicate cultures in a single experiment. Fitted curves are 4-parameter logistic regressions. PCR = pH cytotoxicity ratio. ACR = anoxia cytotoxicity ratio. TMR = tumor microenvironment ratio.

[5] = Solubility in AlphaMEM + 5% FBS, pH 7.4; conditions: culture medium (AlphaMEM + 5% FBS), pH 7.4, plasma or biological fluid
[6] = pHe 6.5, 4 h, anoxic, read-out: Anoxic IC50
[7] = pHe 6.5, 4 h, oxic, read-out: Oxic IC50
[8] = pHe 7.4, 4 h, anoxic, read-out: Anoxic IC50
[9] = pHe 7.4, 4 h, oxic, read-out: Oxic IC50
[10] = read-out: Anoxic IC50, SiHa, pHe 6.5, 4 h, anoxic
[11] = read-out: Anoxic IC50, SiHa, pHe 7.4, 4 h, anoxic
[12] = read-out: Oxic IC50, SiHa, pHe 6.5, 4 h, oxic
[13] = read-out: Oxic IC50, SiHa, pHe 7.4, 4 h, oxic

## Cc1ccc2c(c1)[n+]([O-])nc(NCCCC(=O)O)[n+]2[O-] (hydrate or solvate) [Compound 12a, 3-((3-Carboxypropyl)amino)-7-methylbenzo[e][1,2,4]triazine 1,4-Dioxide]
other
  melting point: 185 to 188 °C

## O=C(O)CCCc1ccc(N(CCCl)CCCl)cc1 [Compound 1, chlorambucil]
[1]; [6]
  IC50: 2.26 ± 0.37 µM
[1]; [7]
  IC50: 3.19 ± 0.78 µM
[1]; [8]
  IC50: 13.1 ± 8.7 µM
[1]; [9]
  IC50: 15 ± 1.6 µM
[2]
  ACR (oxic IC50/anoxic IC50): 1.26 ± 0.20 and 0.94 ±0.21
[2]; pHe 6.5, 4 h, 20% O2, read-out: Oxic IC50
  IC50: 0.8 ± 0.17 µM
[2]; pHe 6.5, 4 h, <0.01% O2, read-out: Anoxic IC50
  IC50: 0.85 ± 0.06 µM
[2]; pHe 7.4, 4 h, 20% O2, read-out: Oxic IC50
  IC50: 6.34 ± 0.88 µM
[2]; pHe 7.4, 4 h, <0.01% O2, read-out: Anoxic IC50
  IC50: 5.05 ± 0.38 µM
[2]; listed as CHL
  PCR Anoxic (IC50 at pHe 7.4/IC50 at pHe 6.5): 5.9
  PCR oxic (IC50 at pHe 7.4/IC50 at pHe 6.5): 7.9
[2]; listed as CHL (1)
  PCR Anoxic (IC50 at pHe 7.4/IC50 at pHe 6.5): 5.94 ± 0.61
  PCR oxic (IC50 at pHe 7.4/IC50 at pHe 6.5): 7.93 ± 2.01
[3]; 0.2% O2
  PCR (IC50 for pHe 7.4/IC50 for pHe 6.5): 9.9 ± 2.8
[3]; 20% O2
  PCR (IC50 for pHe 7.4/IC50 for pHe 6.5): 6.5 ± 2.0
[3]; <0.01% O2
  PCR (IC50 for pHe 7.4/IC50 for pHe 6.5): 7.40 ± 1.64
[3]; 0.2% O2 (24 h before and during 4 h exposure), pHe 6.5
  IC50: 1.75 ± 0.44 µM
[3]; 0.2% O2 (24 h before and during 4 h exposure), pHe 7.4
  IC50: 17.3 ± 2.53 µM
[3]; 4 h, 20% O2, pHe 6.5, 4 h
  IC50: 1.84 ± 0.48 µM
[3]; 4 h, 20% O2, pHe 7.4, 4 h
  IC50: 12 ± 2 µM
[3]; 4 h, <0.01% O2, pHe 6.5, 4 h
  IC50: 1.49 ± 0.18 µM
[3]; 4 h, <0.01% O2, pHe 7.4, 4 h
  IC50: 11 ± 2.1 µM
[3]; pHe 6.5
  ACR (IC50 for 20% O2/IC50 for <0.01% O2): 1.23 ± 0.34
  HCR (IC50 for 20% O2/IC50 for 0.2% O2): 1.05 ± 0.38
[3]; pHe 7.4
  ACR (IC50 for 20% O2/IC50 for <0.01% O2): 1.09 ± 0.27
  HCR (IC50 for 20% O2/IC50 for 0.2% O2): 0.69 ± 0.15
[4]; [10]
  IC50: 3.78 ± 1.51 µM
[4]; [11]
  IC50: 13.6 ± 1.1 µM
[4]; [12]
  IC50: 1.58 ± 0.27 µM
[4]; [13]
  IC50: 12.7 ± 1.2 µM

## COC(=O)CCc1n[n+]([O-])c2cc(C)ccc2[n+]1[O-] [Compound 5b, 3-(3-Methoxy-3-oxopropyl)-7-methylbenzo[e][1,2,4]triazine 1,4-Dioxide]
[5]; kinetic from dmso stock
  solubility: > 950 µM
other
  melting point: 165 to 167 °C

## CCOC(=O)CNc1n[n+]([O-])c2ccccc2[n+]1[O-] [Compound 8b, Ethyl [(1,4-Dioxido-1,2,4-benzotriazin-3-yl)amino]acetate]
[5]; thermodynamic from solid
  solubility: 8600 µM
[1]
  TMR (oxic IC50 pHe 7.4/anoxic IC50 pHe 6.5): 11.2 ± 2.9
[1]; [6]
  IC50: 8.55 ± 1.92 µM
[1]; [7]
  IC50: 76.1 ± 17.9 µM
[1]; [8]
  IC50: 5.25 ± 1.18 µM
[1]; [9]
  IC50: 102 ± 9 µM
[1]; anoxic
  PCR Anoxic (IC50 at pHe 7.4/IC50 at pHe 6.5): 0.61 ± 0.02
[1]; oxic
  PCR oxic (IC50 at pHe 7.4/IC50 at pHe 6.5): 1.34 ± 0.33
[1]; pHe 6.5
  ACR (oxic IC50/anoxic IC50): 8.89 ± 2.89
[1]; pHe 7.4
  ACR (oxic IC50/anoxic IC50): 19.3 ± 4.7
[4]; [10]
  IC50: 2.5 ± 0.87 µM
[4]; [11]
  IC50: 1.2 ± 0.35 µM
[4]; [12]
  IC50: 21.6 ± 5.7 µM
[4]; [13]
  IC50: 35.3 ± 3.1 µM
[4]
  TMR (overall TME ratio = oxic IC50 pHe 7.4/anoxic IC50 pHe 6.5): 14.1 ± 5.1
  PCR Anoxic (IC50 at pHe 7.4/IC50 at pHe 6.5): 0.48 ± 0.22
  PCR oxic (IC50 at pHe 7.4/IC50 at pHe 6.5): 1.63 ± 0.45
[4]; pHe 6.5
  ACR (anoxic cytotoxicity ratio = oxic IC50/anoxic IC50): 8.6 ± 3.8
[4]; pHe 7.4
  ACR (anoxic cytotoxicity ratio = oxic IC50/anoxic IC50): 29.4 ± 8.9

## COC(=O)CCNc1n[n+]([O-])c2cc3c(cc2[n+]1[O-])CCC3 [Compound 10b, 3-((3-Methoxy-3-oxopropyl)amino)-7,8-dihydro-6H-indeno[5,6-e][1,2,4]triazine 1,4-Dioxide]
[5]; thermodynamic from solid
  solubility: 350 µM
[1]
  TMR (oxic IC50 pHe 7.4/anoxic IC50 pHe 6.5): 7.31 ± 1.08
[1]; [6]
  IC50: 40 ± 5.8 µM
[1]; [7]
  IC50: 262 ± 29 µM
[1]; [8]
  IC50: 43.7 ± 12.1 µM
[1]; [9]
  IC50: 292 ± 8 µM
[1]; anoxic
  PCR Anoxic (IC50 at pHe 7.4/IC50 at pHe 6.5): 1.09 ± 0.34
[1]; oxic
  PCR oxic (IC50 at pHe 7.4/IC50 at pHe 6.5): 1.11 ± 0.13
[1]; pHe 6.5
  ACR (oxic IC50/anoxic IC50): 6.56 ± 1.19
[1]; pHe 7.4
  ACR (oxic IC50/anoxic IC50): 6.69 ± 1.86
[4]; [10]
  IC50: 21 ± 4.2 µM
[4]; [11]
  IC50: 20.4 ± 4.8 µM
[4]; [12]
  IC50: 208 ± 26 µM
[4]; [13]
  IC50: 249 ± 50 µM
[4]
  TMR (overall TME ratio = oxic IC50 pHe 7.4/anoxic IC50 pHe 6.5): 11.9 ± 3.4
  PCR Anoxic (IC50 at pHe 7.4/IC50 at pHe 6.5): 0.97 ± 0.30
  PCR oxic (IC50 at pHe 7.4/IC50 at pHe 6.5): 1.20 ± 0.28
[4]; pHe 6.5
  ACR (anoxic cytotoxicity ratio = oxic IC50/anoxic IC50): 9.90 ±2.34
[4]; pHe 7.4
  ACR (anoxic cytotoxicity ratio = oxic IC50/anoxic IC50): 12.2 ± 3.8

## CCOC(=O)CCCNc1n[n+]([O-])c2ccccc2[n+]1[O-] [Compound 11b, 3-((4-Ethoxy-4-oxobutyl)amino)benzo[e][1,2,4]triazine 1,4-Dioxide]
[5]; kinetic from dmso stock
  solubility: 1400 µM
[1]
  TMR (oxic IC50 pHe 7.4/anoxic IC50 pHe 6.5): 10.1 ± 3.0
[1]; [6]
  IC50: 36.3 ± 4.8 µM
[1]; [7]
  IC50: 274 ± 210 µM
[1]; [8]
  IC50: 29 ± 2 µM
[1]; [9]
  IC50: 368 ± 98 µM
[1]; anoxic
  PCR Anoxic (IC50 at pHe 7.4/IC50 at pHe 6.5): 0.80 ± 0.12
[1]; oxic
  PCR oxic (IC50 at pHe 7.4/IC50 at pHe 6.5): 1.34 ± 1.09
[1]; pHe 6.5
  ACR (oxic IC50/anoxic IC50): 7.55 ± 5.87
[1]; pHe 7.4
  ACR (oxic IC50/anoxic IC50): 12.7 ± 3.5
[4]; [10]
  IC50: 4.36 ± 0.56 µM
[4]; [11]
  IC50: 3.55 ± 0.7 µM
[4]; [12]
  IC50: 13.2 ± 0.9 µM
[4]; [13]
  IC50: 14.5 ± 0.6 µM
[4]
  TMR (overall TME ratio = oxic IC50 pHe 7.4/anoxic IC50 pHe 6.5): 3.32 ± 0.45
  PCR Anoxic (IC50 at pHe 7.4/IC50 at pHe 6.5): 0.81 ± 0.19
  PCR oxic (IC50 at pHe 7.4/IC50 at pHe 6.5): 1.10 ± 0.09
[4]; pHe 6.5
  ACR (anoxic cytotoxicity ratio = oxic IC50/anoxic IC50): 3.04 ±0.44
[4]; pHe 7.4
  ACR (anoxic cytotoxicity ratio = oxic IC50/anoxic IC50): 4.08 ±0.82

## Cc1ccc2c(c1)[n+]([O-])nc(NCCCC(=O)O)[n+]2[O-] [Compound 12a, 3-((3-Carboxypropyl)amino)-7-methylbenzo[e][1,2,4]triazine 1,4-Dioxide]
[5]; kinetic from dmso stock
  solubility: > 890 µM
[1]
  TMR (oxic IC50 pHe 7.4/anoxic IC50 pHe 6.5): >1
[1]; [6]
  IC50: 271 ± 53 µM
[1]; [7]
  IC50: > 300 µM
[1]; [8]
  IC50: > 300 µM
[1]; [9]
  IC50: > 300 µM
[1]; anoxic
  PCR Anoxic (IC50 at pHe 7.4/IC50 at pHe 6.5): >1
[1]; pHe 6.5
  ACR (oxic IC50/anoxic IC50): >1
[4]; [10]
  IC50: 234 ± 17 µM
[4]; [11]
  IC50: > 300 µM
[4]; [12]
  IC50: > 300 µM
[4]; [13]
  IC50: > 300 µM
[4]
  TMR (overall TME ratio = oxic IC50 pHe 7.4/anoxic IC50 pHe 6.5): >1
  PCR Anoxic (IC50 at pHe 7.4/IC50 at pHe 6.5): >1
[4]; pHe 6.5
  ACR (anoxic cytotoxicity ratio = oxic IC50/anoxic IC50): >1
